# Assay results: paper PMC10333285, “Structural basis of ligand activation and inhibition in a mammalian TRPV4 ion channel” (Cell Discovery, 2023)
# Tests used:
# TRPV4 (mTRPV4) [1] = target: TRPV4 (mTRPV4) (Mus musculus, UniProt Q9EPK8); assay: cryo-EM structure with GSK101 also bound ([…] Å); patch-clamp inhibition IC50; type: cell-based
# TRPV4 (mTRPV4) [2] = target: TRPV4 (mTRPV4) (Mus musculus, UniProt Q9EPK8, D682A); assay: patch-clamp inhibition of GSK101-activated mutant channel; type: cell-based
# Chain of TRPV4 (mTRPV4) (Mus musculus, UniProt Q9EPK8, D682A) (Q9EPK8 whole entry D682A): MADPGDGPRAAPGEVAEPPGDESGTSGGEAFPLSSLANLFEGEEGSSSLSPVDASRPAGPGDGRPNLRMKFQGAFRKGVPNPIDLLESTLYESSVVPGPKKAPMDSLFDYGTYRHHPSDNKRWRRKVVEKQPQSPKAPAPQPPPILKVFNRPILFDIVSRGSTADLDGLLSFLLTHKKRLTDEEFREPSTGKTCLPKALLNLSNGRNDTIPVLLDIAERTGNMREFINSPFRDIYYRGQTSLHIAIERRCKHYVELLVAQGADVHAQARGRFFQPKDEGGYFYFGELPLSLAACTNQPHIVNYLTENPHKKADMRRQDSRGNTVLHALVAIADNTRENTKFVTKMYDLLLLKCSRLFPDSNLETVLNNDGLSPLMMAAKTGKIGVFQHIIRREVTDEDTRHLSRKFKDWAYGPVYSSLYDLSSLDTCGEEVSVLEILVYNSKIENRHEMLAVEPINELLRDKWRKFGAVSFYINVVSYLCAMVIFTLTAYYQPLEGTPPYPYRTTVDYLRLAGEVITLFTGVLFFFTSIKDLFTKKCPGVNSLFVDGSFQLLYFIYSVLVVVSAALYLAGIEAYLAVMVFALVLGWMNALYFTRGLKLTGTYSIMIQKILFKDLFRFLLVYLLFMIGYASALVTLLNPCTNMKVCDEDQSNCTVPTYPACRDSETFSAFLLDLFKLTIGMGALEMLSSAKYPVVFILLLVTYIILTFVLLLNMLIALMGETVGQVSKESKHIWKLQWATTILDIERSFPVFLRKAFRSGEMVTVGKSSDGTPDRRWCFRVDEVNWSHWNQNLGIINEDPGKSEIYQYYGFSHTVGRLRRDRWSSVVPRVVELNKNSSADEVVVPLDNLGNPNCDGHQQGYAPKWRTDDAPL
# Chain of TRPV4 (mTRPV4) (Mus musculus, UniProt Q9EPK8) (Q9EPK8 whole entry): as the sequence (Q9EPK8 whole entry D682A) above, with A682D counted along it
compound,measurement,setting,value
Cl.Cl.Cl.Cl.Cl.Cl.N.N.N.N.N.N.N.N.N.N.N.N.N.N.[O-2].[O-2].[Ru+3].[Ru+3].[Ru+4] [ruthenium red],IC50,TRPV4 (mTRPV4) [1],0.3 ± 0.1 µM
same,IC50,TRPV4 (mTRPV4) [2],15.6 ± 3.2 µM
